Each molecule was assayed against T1, recombinant c-Myc/Max (Homo sapiens, UniProt P01106+P61244) (assay: Electrophoretic mobility shift assay (EMSA): inhibitory activity on DNA binding of recombinant c-Myc/Max). Conditions: read-out: protein assay IC50.
T1 construct: made in house
Protocol: 1) Preparation of Recombinant c-Myc and Max Proteins
Recombinant proteins were prepared as described in the following references: K. C. Jung et al., Fatty Acids, Inhibitors for the DNA Binding of c-Myc/Max Dimer, Suppress Proliferation and Induce Apoptosis of Differentiated HL-60 Human Leukemia Cell, Leukemia, 2006, 20(1), 122-7 or Kyung-Chae Jeong et al., Small-Molecule Inhibitors of c-Myc Transcriptional Factor Suppress Proliferation and Induce Apoptosis of Promyelocytic Leukemia Cell via Cell Cycle Arrest, Mol. BioSyst., 2010, 6, 1503-1509.
2) Electrophoretic Mobility Shift Assay (EMSA)
The inhibitory activity of each candidate compound on DNA binding of recombinant c-Myc/Max was measured using an electrophoretic mobility shift assay (EMSA). The ratio of protein-DNA complexes in each sample was evaluated by measuring band intensity. The oligonucleotides (E-box) corresponding to the consensus binding site of Myc/Max were dimerized through an annealing process. The protein mixture was incubated at room temperature for 5 minutes, and a DMSO solution containing each candidate compound was added thereto. The mixture was further incubated for 5 minutes, and the biotinylated DNA was added. To achieve a state of equilibrium, the final mixture was incubated at room temperature for 10 minutes. The protein-DNA complexes were separated from unbound free DNA by pre-electrophoresis using 8% polyacrylamide gel and 1×TBE buffer. After pre-electrophoresis, electrophoresis was performed at 120 V for 1 hour in 1×TBE buffer. Each band was visualized using HRP-conjugated streptavidin and an ECL solution, and band intensity was measured using image analysis software.

T1 sequence (P01106 whole entry): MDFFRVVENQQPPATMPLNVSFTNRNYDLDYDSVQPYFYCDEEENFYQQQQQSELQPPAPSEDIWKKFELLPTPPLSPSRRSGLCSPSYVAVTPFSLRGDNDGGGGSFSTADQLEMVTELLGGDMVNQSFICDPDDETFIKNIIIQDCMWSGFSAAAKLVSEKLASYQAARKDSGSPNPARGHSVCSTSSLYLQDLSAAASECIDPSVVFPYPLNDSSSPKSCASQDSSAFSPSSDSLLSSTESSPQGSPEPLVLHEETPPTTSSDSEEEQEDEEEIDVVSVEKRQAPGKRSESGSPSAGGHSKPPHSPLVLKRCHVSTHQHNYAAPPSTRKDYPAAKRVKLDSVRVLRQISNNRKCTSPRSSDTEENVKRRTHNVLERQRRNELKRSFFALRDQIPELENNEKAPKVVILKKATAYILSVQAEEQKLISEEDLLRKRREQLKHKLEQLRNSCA
T1 sequence (P61244 whole entry): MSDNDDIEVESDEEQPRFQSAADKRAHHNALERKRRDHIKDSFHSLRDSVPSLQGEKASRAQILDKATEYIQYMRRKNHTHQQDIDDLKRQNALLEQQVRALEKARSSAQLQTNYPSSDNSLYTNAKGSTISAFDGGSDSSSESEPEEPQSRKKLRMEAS

| SMILES | IC50 |
| --- | --- |
| CC(=O)c1c([S+]([O-])Cc2ccc(N)nc2)[nH]c2c(Br)ccc(Cl)c2c1=O (centres unmarked) [Compound 100, 3-acetyl-2-(((6-aminopyridin-3-yl)methyl)sulfinyl)-8-bromo-5-chloroquinolin-4(1H)-one] | < 1000 nM |
| CC(=O)c1c(SCc2cc(Cl)ccc2Cl)[nH]c2c(Br)ccc(Cl)c2c1=O [Compound 43, 3-acetyl-8-bromo-5-chloro-2-((2,5-dichlorobenzyl)thio)quinolin-4(1H)-one] | < 1000 nM |
| CSc1c(C(C)=O)c(=O)c2c(Cl)ccc(Br)c2n1C [Compound 5, 3-acetyl-8-bromo-5-chloro-1-methyl-2-(methylthio)quinolin-4(1H)-one] | < 1000 nM |
| CC(=O)c1c([S+](C)[O-])[nH]c2c(Br)ccc(Cl)c2c1=O (centres unmarked) [Compound 1, 3-acetyl-8-bromo-5-chloro-2-(methylsulfinyl)quinolin-4(1H)-one] | < 1000 nM |
| CC(=O)c1c([S+]([O-])Cc2ccc(OC(F)(F)F)cc2)[nH]c2c(Br)ccc(Cl)c2c1=O (centres unmarked) [Compound 71, 3-acetyl-8-bromo-5-chloro-2-((4-(trifluoromethoxy)benzyl)sulfinyl)quinolin-4(1H)-one] | < 1000 nM |
| CC(=O)c1c(SCc2cccc(I)c2)[nH]c2c(Br)ccc(Cl)c2c1=O [Compound 47, 3-acetyl-8-bromo-5-chloro-2-((3-iodobenzyl)thio)quinolin-4(1H)-one] | < 1000 nM |
| CC(=O)c1c(S)[nH]c2c(Br)ccc(Cl)c2c1=O [Compound 62, 3-acetyl-8-bromo-5-chloro-2-mercaptoquinolin-4(1H)-one] | < 1000 nM |
| CC(=O)c1c([S+]([O-])C(C)C)[nH]c2c(Br)ccc(Cl)c2c1=O (centres unmarked) [Compound 25, 3-acetyl-8-bromo-5-chloro-2-(isopropylsulfinyl)quinolin-4(1H)-one] | < 1000 nM |
| CC(=O)c1c(SCc2ccccc2)n(C(=O)c2ccc(Br)cc2)c2c(Br)ccc(Cl)c2c1=O [Compound 23, 3-acetyl-2-(benzylthio)-8-bromo-1-(4-bromobenzoyl)-5-chloroquinolin-4(1H)-one] | < 1000 nM |
| CC(=O)c1c([S+]([O-])Cc2cnc3[nH]ccc3c2)[nH]c2c(Br)ccc(Cl)c2c1=O (centres unmarked) [Compound 107, 2-(((1H-pyrrolo[2,3-b]pyridin-5-yl)methyl)sulfinyl)-3-acetyl-8-bromo-5-chloroquinolin-4(1H)-one] | < 1000 nM |
| CC(=O)c1c([S+]([O-])Cc2cccc(F)c2)[nH]c2c(Br)ccc(Cl)c2c1=O (centres unmarked) [Compound 50, 3-acetyl-8-bromo-5-chloro-2-((3-fluorobenzyl)sulfinyl)quinolin-4(1H)-one] | < 1000 nM |
| CC(=O)c1c(SCc2cc(F)cc(F)c2)[nH]c2c(Br)ccc(Cl)c2c1=O [Compound 45, 3-acetyl-8-bromo-5-chloro-2-((3,5-difluorobenzyl)thio)quinolin-4(1H)-one] | < 1000 nM |
| CC(=O)c1c([S+]([O-])Cc2cc(C)on2)[nH]c2c(F)ccc(F)c2c1=O (centres unmarked) [Compound 82, 3-acetyl-5,8-difluoro-2-(((5-methylisoxazol-3-yl)methyl)sulfinyl)quinolin-4(1H)-one] | < 1000 nM |
| CC(=O)c1c(SCc2cccc(C#N)c2)[nH]c2c(Br)ccc(Cl)c2c1=O [Compound 27, 3-(((3-acetyl-8-bromo-5-chloro-4-oxo-1,4-dihydroquinolin-2-yl)thio)methyl)benzonitrile] | < 1000 nM |
| Cc1cc(C[S+]([O-])c2[nH]c3c(Cl)ccc(Cl)c3c(=O)c2C(=O)C(C)C)no1 (centres unmarked) [Compound 86, 5,8-dichloro-3-isobutyryl-2-(((5-methylisoxazol-3-yl)methyl)sulfinyl)quinolin-4(1H)-one] | < 1000 nM |
| CC(=O)c1c(SCc2ccccc2)nc2c(Br)ccc(Cl)c2c1O [Compound 52, 1-(2-(benzylthio)-8-bromo-5-chloro-4-hydroxyquinolin-3-yl)ethan-1-one] | < 1000 nM |
| CC(=O)c1c(SCc2ccc(F)c(Cl)c2)[nH]c2c(Br)ccc(Cl)c2c1=O [Compound 30, 3-acetyl-8-bromo-5-chloro-2-((3-chloro-4-fluorobenzyl)thio)quinolin-4(1H)-one] | < 1000 nM |
| COc1cccc2[nH]c([S+]([O-])Cc3ccc(S(F)(F)(F)(F)F)cc3)c(C(C)=O)c(=O)c12 (centres unmarked) [Compound 93, 3-acetyl-5-methoxy-2-((4-(pentafluoro-λ6-sulfanyl)benzyl)sulfinyl)quinolin-4(1H)-one] | < 1000 nM |
| CC(=O)c1c([S+]([O-])CC#N)[nH]c2c(Br)ccc(Cl)c2c1=O (centres unmarked) [Compound 65, 2-((3-acetyl-8-bromo-5-chloro-4-oxo-1,4-dihydroquinolin-2-yl)sulfinyl)acetonitrile] | < 1000 nM |
| CC(=O)c1c(S(=O)(=O)Cc2ccccc2)[nH]c2c(Br)ccc(Cl)c2c1=O [Compound 34, 3-acetyl-2-(benzylsulfonyl)-8-bromo-5-chloroquinolin-4(1H)-one] | < 1000 nM |
| COCCNc1ccc(C[S+]([O-])c2[nH]c3c(Br)ccc(Cl)c3c(=O)c2C(C)=O)cn1 (centres unmarked) [Compound 105, 3-acetyl-8-bromo-5-chloro-2-(((6-((2-methoxyethyl)amino)pyridin-3-yl)methyl)sulfinyl)quinolin-4(1H)-one] | < 1000 nM |
| CC(=O)c1c([S+]([O-])Cc2cccc(C#N)c2)[nH]c2c(Br)ccc(Cl)c2c1=O (centres unmarked) [Compound 28, 3-(((3-acetyl-8-bromo-5-chloro-4-oxo-1,4-dihydroquinolin-2-yl)sulfinyl)methyl)benzonitrile] | < 1000 nM |
| COc1cccc(C[S+]([O-])c2[nH]c3c(Br)ccc(Cl)c3c(=O)c2C(C)=O)c1 (centres unmarked) [Compound 55, 3-acetyl-8-bromo-5-chloro-2-((3-methoxybenzyl)sulfinyl)quinolin-4(1H)-one] | < 1000 nM |
| CC(=O)c1c([S+](C)[O-])n(Cc2ccc(F)c(Cl)c2)c2c(Br)ccc(Cl)c2c1=O (centres unmarked) [Compound 22, 3-acetyl-8-bromo-5-chloro-1-(3-chloro-4-fluorobenzyl)-2-(methylsulfinyl)quinolin-4(1H)-one] | < 1000 nM |
| CC(=O)c1c([S+](C)[O-])n(C(C)=O)c2c(Br)ccc(Cl)c2c1=O (centres unmarked) [Compound 19, 1,1′-(8-bromo-5-chloro-2-(methylsulfinyl)-4-oxoquinoline-1,3-(4H)-diyl)bis(ethan-1-one)] | < 1000 nM |
| CC(=O)c1c([S+]([O-])Cc2ccc(Cl)cc2)[nH]c2c(Br)ccc(Cl)c2c1=O (centres unmarked) [Compound 11, 3-acetyl-8-bromo-5-chloro-2-((4-chlorobenzyl)sulfinyl)quinolin-4(1H)-one] | < 1000 nM |
| Cc1cc(C[S+]([O-])c2[nH]c3c(Br)ccc(Cl)c3c(=O)c2C(=O)C(C)C)no1 (centres unmarked) [Compound 95, 8-bromo-5-chloro-3-isobutyryl-2-(((5-methylisoxazol-3-yl)methyl)sulfinyl)quinolin-4(1H)-one] | < 1000 nM |
| CC(=O)c1c([S+]([O-])Cc2ccc([S+]([O-])C(F)(F)F)cc2)[nH]c2c(Br)ccc(Cl)c2c1=O (centres unmarked) [Compound 64, 3-acetyl-8-bromo-5-chloro-2-((4-((trifluoromethyl)sulfinyl)benzyl)sulfinyl)quinolin-4(1H)-one] | < 1000 nM |
| CC(=O)c1c([S+]([O-])Cc2ccc(C(F)(F)F)cc2)[nH]c2c(Br)ccc(Cl)c2c1=O (centres unmarked) [Compound 70, 3-acetyl-8-bromo-5-chloro-2-((4-(trifluoromethyl)benzyl)sulfinyl)quinolin-4(1H)-one] | < 1000 nM |

Reference: patent US9951021B2, “Compounds for inhibiting c-Myc/Max/DNA complex formation” (NATIONAL CANCER CENTER, priority 2016, dated 2018)
